Active and inactive are the calls of the source. No cut-off for these calls is given here.
Legend:
PANC-1 = assay: Cytotoxicity against human PANC-1 cells assessed as reduction in cell viability incubated for 72 hrs by MTT assay; format: functional, cell-based; details: PANC-1, 72 h
Bel-7402 [1] = assay: Antitumor activity against human Bel-7402 cells xenografted in BALB/c nude mouse assessed as tumor growth inhibition at 20 mg/kg, ip qd measured every 2 days for 14 days relative to control; format: functional; details: Bel-7402, 336 h, time 14 day, read-out: TGI
[2] = Toxicity in ICR mouse assessed as change in monocyte level at 100 mg/kg, ip qd (reference value: 3.2 %); format: organism-based; details: in vivo
Bel-7402 [3] = assay: Induction of apoptosis in human Bel-7402 cells assessed as early apoptotic cells at 0.313 uM incubated for 24 hrs by Annexin V and dead cell assay kit (reference value: 3.75 %); format: functional
[4] = Toxicity in ICR mouse assessed as change in neutrophile granulocyte level at 100 mg/kg, ip qd (reference value: 21.6 %); format: organism-based; details: in vivo
[5] = Half life in Sprague-Dawley rat at 20 mg/kg, ip measured for 0.03 to 24 hrs by UPLC-MS analysis; format: ADME, organism-based; details: in vivo, time 0.03-24 hrs
[6] = Cmax in Sprague-Dawley rat at 20 mg/kg, ip measured for 0.03 to 24 hrs by UPLC-MS analysis; format: ADME, organism-based; parameters: time lower 0.03 hrs, dose 20 mg/kg, time upper 24 hrs, route ip; details: in vivo
[7] = Biodistribution in liver of mouse bearing tumor measured after 24 hr by ICG dye based fluorescence imaging; format: ADME, organism-based; details: in vivo
Bel-7402 [8] = assay: Antitumor activity against human Bel-7402 cells xenografted in BALB/c nude mouse assessed as reduction in tumor growth at 20 mg/kg, ip qd measured every 2 days for 14 days; format: functional, organism-based; details: time 14.0 day
[9] = Toxicity in ICR mouse assessed as change in hemoglobin level at 100 mg/kg, ip qd (reference value: 124 g/L); format: organism-based; details: in vivo
[10] = Toxicity in BALB/c nude mouse xenografted with human Bel-7402 cells assessed as change in body weight at 10 to 20 mg/kg, ip bid measured every 2 days for 14 days; format: organism-based; details: in vivo, 336 h, dose 10-20 mg/kg, time 14 day
Bel-7402 [11] = assay: Induction of apoptosis in human Bel-7402 cells assessed as increase in cleaved caspase-3 upto 2.5 uM incubated for 24 hrs by Western blot analysis; format: functional, cell-based
[12] = Toxicity in BALB/c nude mouse xenografted with human Bel-7402 cells assessed as behavioural change at 10 to 20 mg/kg, ip bid; format: organism-based; details: in vivo, dose 10-20 mg/kg
[13] = Sub-chronic toxicity in ICR mouse assessed as change in amount of food intake at 100 mg/kg/day, ip for 26 days; format: organism-based; details: in vivo, 624 h, time 26 day
HeLa = assay: Cytotoxicity against human HeLa cells assessed as reduction in cell viability incubated for 72 hrs by MTT assay; format: functional, cell-based
[14] = Toxicity in ICR mouse assessed as change in mean corpuscular hemoglobin level at 100 mg/kg, ip qd (reference value: 17.5 pg); format: organism-based; details: in vivo
[15] = Toxicity in ICR mouse assessed as change in red blood cell count at 100 mg/kg, ip qd (reference value: 7.05 10^12/L); format: organism-based; details: in vivo
[16] = Toxicity in ICR mouse assessed as change in lymphocyte count at 100 mg/kg, ip qd (reference value: 3.0 10^9/L); format: organism-based; details: in vivo
[17] = Chronic toxicity in ICR mouse assessed as effect on kidney morphology at 100 mg/kg, ip qd measured after 26 days by H and E staining method; format: organism-based; details: in vivo, 624 h, time 26 day
Bel-7402 [18] = assay: Induction of apoptosis in human Bel-7402 cells assessed as viable cells at 5 uM incubated for 24 hrs by Annexin V and dead cell assay kit (reference value: 91.00%); format: functional; details: read-out: Activity
Bel-7402 [19] = assay: Antitumor activity against human Bel-7402 cells xenografted in BALB/c nude mouse assessed as tumor growth inhibition at 20 mg/kg, ip bid for 14 days measured every 2 days relative to control; format: functional; details: Bel-7402, 336 h, time 14 day, read-out: TGI
Bel-7402 [20] = assay: Induction of apoptosis in human Bel-7402 cells assessed as early apoptotic cells at 2.5 uM incubated for 24 hrs by Annexin V and Dead cell kit assay (reference value: 3.7 %); format: functional
Bel-7402 [21] = assay: Induction of apoptosis in human Bel-7402 cells assessed as late apoptotic cells at 5 uM incubated for 24 hrs by Annexin V and dead cell assay kit (reference value: 4.45 %); format: functional
Bel-7402 [22] = assay: Induction of apoptosis in human Bel-7402 cells assessed as viable cells at 1.25 uM incubated for 24 hrs by Annexin V and dead cell assay kit (reference value: 91.00%); format: functional; details: read-out: Activity
Bel-7402 [23] = assay: Induction of ERK degradation in human Bel-7402 cells at 2.5 uM incubated for 24 hrs in presence of choro-quine by Western blot analysis; format: cell-based
Bel-7402 [24] = assay: Induction of AKT degradation in human Bel-7402 cells at 2.5 uM incubated for 24 hrs in presence of Z-vad-fmk by Western blot analysis; format: cell-based
Bel-7402 [25] = assay: Cytotoxicity against human Bel-7402 cells assessed as inhibition rate at 5 uM incubated for 72 hrs by MTT assay relative to control; format: functional; parameters: scale not given: the % may be the effect or the level left
Bel-7402 [26] = assay: Induction of apoptosis in human Bel-7402 cells assessed as late apoptotic cells at 2.5 uM incubated for 24 hrs by Annexin V and Dead cell kit assay (reference value: 3.85 %); format: functional
[27] = Tmax in Sprague-Dawley rat at 20 mg/kg, ip measured for 0.03 to 24 hrs by UPLC-MS analysis; format: ADME, organism-based; details: in vivo, time 0.03-24 hrs
Bel-7402 [28] = assay: Induction of apoptosis in human Bel-7402 cells assessed as dead cells at 0.313 uM incubated for 24 hrs by Annexin V and dead cell assay kit (reference value: 0.80 %); format: functional
Bel-7402 [29] = assay: Induction of apoptosis in human Bel-7402 cells assessed as increase in cleaved PARP upto 2.5 uM incubated for 24 hrs by Western blot analysis; format: functional, cell-based
[30] = Toxicity in ICR mouse assessed as change in white blood cell count at 100 mg/kg, ip qd (reference value: 4.0 10^9/L); format: organism-based; details: in vivo
Bel-7402 [31] = assay: Cytotoxicity against human Bel-7402 cells assessed as inhibition of cell growth incubated for 72 hrs by MTT assay; format: functional, cell-based; details: dose 5.0 µM, DDE = dose-dependent effect
[32] = Toxicity in ICR mouse assessed as change in plateletcrit level at 100 mg/kg, ip qd (reference value: 0.415 %); format: organism-based; details: in vivo
[33] = Toxicity in ICR mouse assessed as change in lymphocyte level at 100 mg/kg, ip qd (reference value: 75.2 %); format: organism-based; details: in vivo
[34] = Toxicity in ICR mouse assessed as change in platelet count at 100 mg/kg, ip qd (reference value: 742 10^9/L); format: organism-based; details: in vivo
Bel-7402 [35] = assay: Induction of apoptosis in human Bel-7402 cells assessed as viable cells at 0.625 uM incubated for 24 hrs by Annexin V and dead cell assay kit (reference value: 91.00%); format: functional; details: read-out: Activity
[36] = Toxicity in BALB/c nude mouse xenografted with Bel-7402 cells assessed as behavioural change at 20 mg/kg, ip qd; format: organism-based; details: in vivo

Structure (SMILES): CC[C@H](C)/C=C(C)/C=C/C1=CC2=C(Cl)C(=O)[C@](C)(O)C(=O)C2=CN1Cc1ccc(OC(F)(F)F)cc1
- IC50 (PANC-1): 2.29 µM
- inhibition in vivo at 20 mg/kg (Bel-7402 [1]): 18.3%
- Activity [2]: 8.1%
- Activity (Bel-7402 [3]): 3.75%
- Activity [4]: 41.6%
- half-life [5]: 2.5 h
- Cmax [6]: 5590 ng/mL
- Activity [7]: Active
- TGI (Bel-7402 [8]): Active
- Activity [9]: 141 g/L
- Activity [10]: Non-Toxic
- Activity (Bel-7402 [11]): Active
- Activity [12]: Non-Toxic
- Activity [13]: Non-Toxic
- IC50 (HeLa): 2.78 µM
- Activity [14]: 16.8 pg
- Activity [15]: 8.37 10^12/L
- Activity [16]: 1.7 10^9/L
- Activity [17]: Non-Toxic
- viability at 5 µM (Bel-7402 [18]): 8.2%
- inhibition in vivo at 20 mg/kg (Bel-7402 [19]): 52.5%
- Activity (Bel-7402 [20]): 25.8%
- Activity (Bel-7402 [21]): 75.55%
- viability at 1.25 µM (Bel-7402 [22]): 88.4%
- Activity (Bel-7402 [23]): Active
- Activity (Bel-7402 [24]): Active
- Activity (Bel-7402 [25]): 90.13%
- Activity (Bel-7402 [26]): 37.9%
- Tmax [27]: 0.75 h
- Activity (Bel-7402 [28]): 0.35%
- Activity (Bel-7402 [29]): Active
- Activity [30]: 3.4 10^9/L
- Activity (Bel-7402 [31]): Dde
- Activity [32]: 0.407%
- Activity [33]: 50.3%
- Activity [34]: 608 10^9/L
- viability at 0.625 µM (Bel-7402 [35]): 91.6%
- Activity [36]: Non-Toxic

Source: ChEMBL document CHEMBL5154737, “Semisynthesis and biological evaluation of (+)-sclerotiorin derivatives as antitumor agents for the treatment of hepatocellular carcinoma” (Eur J Med Chem, 2022)
